In PMC10851555, “Safinamide, an inhibitor of monoamine oxidase, modulates the magnitude, gating, and hysteresis of sodium ion current” (BMC Pharmacology & Toxicology, 2024):

Tests used:
[1] = test system: voltage-gated sodium ion (NaV) channels in pituitary GH3 cells; assay: Whole-cell INa(T) decay during a 1-s, 20-Hz train of depolarizing pulses in GH3 cells; type: cell-based, rat; conditions: control 65 ± 4 ms, n = 7
Protocol: Shortly before experiments, GH3 was carefully suspended in normal Tyrode’s solution at room temperature (20–25 °C). A few drops of the suspension containing cell clumps were immediately added to a custom-built chamber on the stage of an inverted Diaphot-200 microscope (Nikon, Tokyo, Japan). Pipettes were pulled from Kimax-51 soft-glass capillaries (#34500-99; Kimble, Vineland, NJ) by using a Narishige PP-830 Vertical Puller (Tokyo, Japan), and their tips were fire-polished using a microforge (MF-83, Narishige). During the measurements, an electrode with a tip resistance of 2–4 MΩ, which was tightly inserted into a holder, was maneuvered using a WR-98 micromanipulator (Narishige). Patch-clamp experiments were performed in the voltage-clamp mode with either cell-attached or whole-cell configuration (rupturing of the membrane patch after GΩ formation) by using a RK-400 Patch-Clamp Amplifier (Bio-Logic, Claix, France) connected to a laptop. Shortly before GΩ formation, potential correction was performed for a liquid junction potential, which developed at the electrode’s tip because of the difference in the compositions of the internal and bath solutions.
SAF is efficacious as an add-on therapy following subthalamic nucleus deep brain stimulation in patients with Parkinson’s disease. Therefore, we investigated whether SAF could modify the inactivation of currents induced by a train of depolarizing stimuli. The test cells were maintained at −80 mV and subjected to repetitive depolarization to −10 mV (40 ms per pulse; rate of 20 Hz; duration of 1 s). Similar to the findings of relevant studies, during the control period (the absence of SAF), INa(T) inactivation was noticed to be induced by 1 s of repetitive depolarization stimuli (−80 to −10 mV) with a decaying time constant of 65 ± 4 ms (n = 7; Fig. 6A, 6B and 6C). […] In the presence of 3 and 10 μM SAF, the exponential time course of INa(T) induced by the same train of depolarizing pulses was longer at 107 ± 5 ms (n = 7, P < 0.05) and 124 ± 6 ms (n = 7, P < 0.05), respectively. Furthermore, as MGB and ranolazine have been reported to suppress the amplitude of INa effectively, we added ranolazine (Ran; 10 μM) and mirogabalin (MGB; 10 μM) separately in the presence of 10 μM SAF. […] The application of Ran (10 μM) or MGB (10 μM) alone decreased the decaying time constant of INa(T) during the same train of depolarizing pulses to 39 ± 4 ms (n = 7, P < 0.05) or 42 ± 4 ms (n = 7, P < 0.05), respectively, from a control value of 66 ± 5 ms (n = 7). Thus, in addition to increasing the magnitude of INa(T), SAF prominently affects the decaying of INa(T) subjected to a 1-s train of depolarizing pulses.
Fig. 6 Effect of SAF on INa(T) decay induced by a train of depolarizing pulses in GH3 cells. The train of pulses comprised twenty 40-ms pulses (voltage increased to −10 mV) with 10-ms intervals at −80 mV for a total duration of 1 s. (A) Current traces during the control period (a, blue) and during exposure to 10 μM SAF (b, red). The voltage-clamp protocol used is indicated atop the current traces. In panel A, the third graphs (blue and red) from the top are the expanded forms of the second graphs (brown dashed boxes). (B) The relative amplitude of INa(T) versus pulse train duration in the absence (blue open circles) and presence (red open squares) of 10 μM SAF (mean ± standard error of the mean; n = 7 for each point). The INa(T) amplitudes were normalized by dividing the current amplitudes at the end of each pulse-train stimulation by those obtained at the beginning of the pulse train stimulation. The gray continuous lines on which the data points are overlaid are reliably fitted with a single exponential.

[2] = test system: voltage-gated sodium ion (NaV) channels in pituitary GH3 cells; assay: Window INa [INa(W)] induced by ascending ramp voltage (−100 to +40 mV over 200 ms) in GH3 cells; type: cell-based, rat; conditions: for ∆G0 for gating of INa(W) activation at 0 mV: control 6.78 ± 1.1, ∆G0 = q × F × V1/2, n = 7
Excerpt: The sigmoidal relationship between Vramp-induced INa(W) and the upsloping Vramp (nonlinear current–voltage relationship) was investigated and fitted with the Boltzmann function as follows: [drawing 2]
where V is the membrane potential in millivolts, Erev is the reversal potential of INa, G is the INa conductance in nanosiemens, I is the current, Vh is the voltage at which half-maximal activation or inactivation of the current occurs, q is the apparent gating charge, F is Faraday’s constant, R is the universal gas constant, and T is the absolute temperature.
The free energy ∆G0 for the gating of INa(W) was determined by assuming a two-state gating model [equilibrium between closed (resting) and open states] of the NaV channel. The ∆G0 for the activation of INa(W) at 0 mV could be calculated as follows: q × F × V1/2 [45, 46]. The standard errors in ∆G0 ( [drawing 3] ) could be calculated as follows: […]
In the present study, we investigated whether the addition of SAF to GH3 cells modulates the magnitude of INa(W) induced by ascending Vramp. Test cells were maintained at −80 mV and subjected to Vramp ascending from −100 to +40 mV over 200 ms (i.e., ramp speed of 0.7 mV/ms) to induce INa(W). […] The ∆area values of INa(W) in the absence and presence of SAF and SAF plus Ran were calculated (Fig. 7B).
Fig. 7 Stimulatory effects of SAF on window INa [INa(W)] induced by an ascending ramp voltage Vramp in GH3 cells. For the experiments, the test cells were maintained at −80 mV and subjected to Vramp ranging from −100 to +40 mV over 200 ms (ramp speed of 0.7 mV/ms). (A) INa(W) trace in the absence (a, blue) and presence (b, red) of 10 μM SAF. The inset indicates the Vramp protocol, and the downward deflection indicates inward-directed current. The continuous gray lines corresponding to the untreated or SAF-treated (10 μM) cells were fitted (least-squares minimization) with the Boltzmann equation. The values of […] and q (apparent gating charge) induced by ascending Vramp over 200 ms in the absence (blue) of SAF were, respectively, −34 mV and 2.1 e; the corresponding values in the presence (red) of 10 μM SAF were −38 mV and 2.8 e, respectively. (B) Summary graph illustrating the effects of SAF (3 and 10 μM) and SAF (10 μM) plus Ran (10 μM) on the Δarea of INa(W) in GH3 cells (mean ± standard error of the mean; n = 7 for each point). The value of Δarea was measured at a voltage ranging from −80 and +40 mV, which corresponded to INa(W) induced by the ascending Vramp. […] (C) Summary graph illustrating the effects of SAF (3 and 10 μM) and SAF plus Ran (10 μM) on ΔG0 (mean ± standard error of the mean; n = 7 for each point). The estimation of ΔG0 for the induction of instantaneous INa(W) is described in the Materials and Methods section.

C[C@H](NCc1ccc(OCc2cccc(F)c2)cc1)C(N)=O [SAF, (S)-2-((4-((3-fluorobenzyl)oxy)benzyl)amino)propanamide]
decaying time constant of INa(T) during train of depolarizing pulses ([1]; 3 μM SAF): 107 ± 5 ms
decaying time constant of INa(T) during train of depolarizing pulses ([1]; 10 μM SAF): 124 ± 6 ms
∆G0 for gating of INa(W) activation at 0 mV ([2]; 3 μM SAF): 8.81 ± 1.6 kJ/mol
q (apparent gating charge) of INa(W) ([2]; 10 μM SAF, absence of SAF 2.1 e): 2.8 e
V1/2 (half-maximal activation voltage) of INa(W) induced by ascending Vramp (Boltzmann fit) ([2]; 10 μM SAF, absence of SAF −34 mV): −38 mV
∆G0 for gating of INa(W) activation at 0 mV ([2]; 10 μM SAF): 10.36 ± 1.8 kJ/mol
amplitude and strength (∆area) of INa(W) ([2]; within 1 min of SAF exposure): sharply increased
